Source: PubChem BioAssay AID2060624 (Molecular Pharmacology Branch, DTP, NCI, 2025)

Test system: 217524-143-R1-J4-PDC spheroids with HUVEC/MSC, viability
Assay: Anticancer human tumor 217524-143-R1-J4-PDC patient-derived pancreatic carcinoma cell line growth inhibition [CLK]
Conditions: for IC50: curve of first compound; for viability, T/C: stronger effect = lower value
Source text: A high-throughput screen of multi-cell type tumor spheroids was designed to identify active combinations of […] and targeted small molecules. Complex spheroids include a stromal component modeled by human endothelial cells (HUVEC) and fibroblasts modeled by human mesenchymal stem cells (MSCs). The concentration ranges selected for each drug and investigational agent were based upon clinically achievable concentrations if the clinical Cmax of the agent was known.
Compounds. The drugs and investigational agents: cirtuvivint (SM08502; NSC835563), CC-671 (NSC850746), vemurafenib (NSC761431), tapotoclax (NSC804041), sotorasib (NSC818433), adagrasib (NSC831453), MRTX-1133 (NSC836407), BAY2416964 (NSC825713), copanlisib (NSC816437), inavolisib (NSC800729), abemaciclib (NSC768073), osimertinib (NSC779217), entinostat (NSC756642), eltanexor (KPT-8602, NSC794443), venetoclax (NSC766270), ceralasertib (NSC777638), bortezomib (NSC756655), olaparib (NSC753686), talazoparib (NSC767125), alisertib (NSC759677), peposertib (NSC802822), gemcitabine (NSC613327), 5-fluorouracil (NSC19893), SN-38 (NSC673596), oxaliplatin (NSC266046), paclitaxel (NSC125973), and doxorubicin (NSC123127), were obtained from the National Cancer Institute (NCI) Developmental Therapeutics Program Chemical Repository. The FDA-approved anticancer drug set is available from the Developmental Therapeutics Program at https://dtp.cancer.gov/organization/dscb/obtaining/available plates.htm. […] The stock solutions were prepared in dimethyl sulfoxide (DMSO, Sigma-Aldrich, St. Louis, MO, cat. D2650), except for the platinum complexes which were prepared in saline (Quality Biological, Gaithersburg, MD, cat. 114-055-101), at 800-fold the tested concentration and stored at -70 degrees C prior to their use. All drugs and investigational agents were tested over a range starting from a high concentration at or near the clinical Cmax and decreasing in half-log increments. If the clinical Cmax for an agent had not been determined, the highest concentration tested was 10 microM.
Cell Culture. All cells were maintained in an incubator at 37 degrees C and 5% CO2 with 95% humidity. The PDC lines were cultured according to standard operating procedures established by the NCI PDMR. Briefly, all PDCs were thawed and cultured in Matrigel-coated flasks prepared with a working solution of 1X Ham's F-12 nutrient mix, without supplementation (Invitrogen, Waltham, MA, cat. 11765054), 100 U/mL penicillin-streptomycin (Invitrogen, cat. 15140122), and 2.5% Matrigel (Corning Inc., Corning, NY, cat. 354248) for the first three passages. The 947758-054-R-J2-PDC line was cultured in 6B/Colon 1A media, which includes advanced DMEM/F-12 (Thermo Fisher Scientific, cat. 12634028), 10 mM HEPES (Thermo Fisher Scientific, cat. 15630080), 1X GlutaMAX supplement (Thermo Fisher Scientific, cat. 35050061), 0.1 mg/mL primocin (InvivoGen, cat. ant-pm-2), 10% defined fetal bovine serum, heat inactivated (HyClone Laboratories Inc., cat. SH30070.03HI), 1.25 mM N-Acetyl-L-cysteine (Sigma-Aldrich, cat. A9165), 10 mM nicotinamide (Sigma-Aldrich, cat. N0636), 1X B-27 supplement (Thermo Fisher Scientific, cat. 17504044), 1X N-2 supplement (Thermo Fisher Scientific, cat. 17502048), and 10 microM Y-27632 dihydrochloride (Tocris Bioscience, cat. 1254). The 876862-298-R-J1-PDC was cultured in 6E media, which includes all 6B/Colon 1A media components plus 50% L-WRN conditioned media (ATCC, cat. CRL-3276), 50 ng/mL recombinant human EGF recombinant protein (hEGF; Thermo Fisher Scientific, cat. PHG0311), 10 ng/mL recombinant human fibroblast growth factor 10 (hGFG-10; PeproTech, cat. 100-26), 1 ng/mL recombinant human fibroblast growth factor 2 (hFGF-2; PeproTech, cat. 100-18B), and 1 µM prostaglandin E2 (PGE2; Tocris, cat. 2296). The 227483-062-R1-J1-PDC line was cultured in Panc media, containing all 6E components except hFGF-2, with the addition of 500 nM SB-431542 (Selleckchem, cat. S1067) and 10 nM gastrin (Tocris, cat. 3006). […]

[1] = second compound 0.0316 µM, first compound 0.0316 µM
[2] = second compound 0.0316 µM, first compound 0.1 µM
[3] = second compound 0.0316 µM, first compound 0.316 µM
[4] = second compound 0.0316 µM, first compound 1 µM
[5] = second compound 0.0316 µM, first compound 3.16 µM
[6] = second compound 0.0316 µM, first compound 10 µM
[7] = second compound 0.1 µM, first compound 0.0316 µM
[8] = second compound 0.1 µM, first compound 0.1 µM
[9] = second compound 0.1 µM, first compound 0.316 µM
[10] = second compound 0.1 µM, first compound 1 µM
[11] = second compound 0.1 µM, first compound 3.16 µM
[12] = second compound 0.1 µM, first compound 10 µM
[13] = second compound 0.316 µM, first compound 0.0316 µM
[14] = second compound 0.316 µM, first compound 0.1 µM
[15] = second compound 0.316 µM, first compound 0.316 µM
[16] = second compound 0.316 µM, first compound 1 µM
[17] = second compound 0.316 µM, first compound 3.16 µM
[18] = second compound 0.316 µM, first compound 10 µM
[19] = second compound 1 µM, first compound 0.0316 µM
[20] = second compound 1 µM, first compound 0.1 µM
[21] = second compound 1 µM, first compound 0.316 µM
[22] = second compound 1 µM, first compound 1 µM
[23] = second compound 1 µM, first compound 3.16 µM
[24] = second compound 1 µM, first compound 10 µM
[25] = second compound 3.16 µM, first compound 0.0316 µM
[26] = second compound 3.16 µM, first compound 0.1 µM
[27] = second compound 3.16 µM, first compound 0.316 µM
[28] = second compound 3.16 µM, first compound 1 µM
[29] = second compound 3.16 µM, first compound 3.16 µM
[30] = second compound 3.16 µM, first compound 10 µM
[31] = second compound 10 µM, first compound 0.0316 µM
[32] = second compound 10 µM, first compound 0.1 µM
[33] = second compound 10 µM, first compound 0.316 µM
[34] = second compound 10 µM, first compound 1 µM
[35] = second compound 10 µM, first compound 3.16 µM
[36] = second compound 10 µM, first compound 10 µM
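Also: spheroids exposed to agents for seven days before reading.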
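For viability, T/C in this document: 100% = DMSO vehicle control viability.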

## C#Cc1c(F)ccc2cc(O)cc(-c3ncc4c(N5CC6CCC(C5)N6)nc(OCC56CCCN5CC(F)C6)nc4c3F)c12 (stereo unspecified) + CN1CCN(c2cc(C(=O)Nc3cc4cc(-c5cnn(C)c5)ccc4cn3)ccn2)CC1
Second compound 0.0316 µM
  IC50: > 10000 nM
Second compound 0.1 µM
  IC50: 3210 nM
Second compound 0.316 µM
  IC50: < 31.6 nM
Second compound 1 µM
  IC50: < 31.6 nM
Second compound 3.16 µM
  IC50: < 31.6 nM
Second compound 10 µM
  IC50: < 31.6 nM
[1]
  viability, T/C: 76.1%
[2]
  viability, T/C: 74.4%
[3]
  viability, T/C: 65.5%
[4]
  viability, T/C: 85.1%
[5]
  viability, T/C: 81.1%
[6]
  viability, T/C: 55%
[7]
  viability, T/C: 53.6%
[8]
  viability, T/C: 46.2%
[9]
  viability, T/C: 53.2%
[10]
  viability, T/C: 55.5%
[11]
  viability, T/C: 49.3%
[12]
  viability, T/C: 37%
[13]
  viability, T/C: 28.3%
[14]
  viability, T/C: 23.9%
[15]
  viability, T/C: 25.2%
[16]
  viability, T/C: 21.6%
[17]
  viability, T/C: 24.8%
[18]
  viability, T/C: 18%
[19]
  viability, T/C: 2.18%
[20]
  viability, T/C: 2.28%
[21]
  viability, T/C: 3.15%
[22]
  viability, T/C: 2.36%
[23]
  viability, T/C: 1.66%
[24]
  viability, T/C: 2.26%
[25]
  viability, T/C: 0.79%
[26]
  viability, T/C: 0.88%
[27]
  viability, T/C: 0.86%
[28]
  viability, T/C: 0.96%
[29]
  viability, T/C: 0.86%
[30]
  viability, T/C: 0.79%
[31]
  viability, T/C: 0.25%
[32]
  viability, T/C: 0.25%
[33]
  viability, T/C: 0.2%
[34]
  viability, T/C: 0.23%
[35]
  viability, T/C: 0.23%
[36]
  viability, T/C: 0.43%

## C=C(F)C(=O)N1CCN(c2nc(OCC3CCCN3C)nc3c2CCN(c2cccc4cccc(Cl)c24)C3)CC1CC#N (stereo unspecified) + CN1CCN(c2cc(C(=O)Nc3cc4cc(-c5cnn(C)c5)ccc4cn3)ccn2)CC1
Second compound 0.0316 µM
  IC50: 5100 nM
Second compound 0.1 µM
  IC50: 2300 nM
Second compound 0.316 µM
  IC50: < 31.6 nM
Second compound 1 µM
  IC50: < 31.6 nM
Second compound 3.16 µM
  IC50: < 31.6 nM
Second compound 10 µM
  IC50: < 31.6 nM
[1]
  viability, T/C: 71.2%
[2]
  viability, T/C: 89.9%
[3]
  viability, T/C: 91.9%
[4]
  viability, T/C: 87.9%
[5]
  viability, T/C: 82.2%
[6]
  viability, T/C: 4.47%
[7]
  viability, T/C: 61.6%
[8]
  viability, T/C: 54.7%
[9]
  viability, T/C: 53.9%
[10]
  viability, T/C: 50.8%
[11]
  viability, T/C: 49.1%
[12]
  viability, T/C: 3.1%
[13]
  viability, T/C: 25%
[14]
  viability, T/C: 24.5%
[15]
  viability, T/C: 31%
[16]
  viability, T/C: 22.8%
[17]
  viability, T/C: 18.4%
[18]
  viability, T/C: 1.05%
[19]
  viability, T/C: 1.86%
[20]
  viability, T/C: 2.01%
[21]
  viability, T/C: 2.61%
[22]
  viability, T/C: 1.74%
[23]
  viability, T/C: 1.47%
[24]
  viability, T/C: 0.1%
[25]
  viability, T/C: 0.87%
[26]
  viability, T/C: 1.12%
[27]
  viability, T/C: 0.66%
[28]
  viability, T/C: 0.73%
[29]
  viability, T/C: 0.71%
[30]
  viability, T/C: 0.13%
[31]
  viability, T/C: 0.3%
[32]
  viability, T/C: 0.27%
[33]
  viability, T/C: 0.3%
[34]
  viability, T/C: 0.31%
[35]
  viability, T/C: 0.44%
[36]
  viability, T/C: 0.22%

## CC(CO)NC(=O)c1cc(-c2ccc(Cl)cc2)nn(-c2cnn(C)c2)c1=O (stereo unspecified) + CN1CCN(c2cc(C(=O)Nc3cc4cc(-c5cnn(C)c5)ccc4cn3)ccn2)CC1
Second compound 0.0316 µM
  IC50: > 10000 nM
Second compound 0.1 µM
  IC50: 229 nM
Second compound 0.316 µM
  IC50: < 31.6 nM
Second compound 1 µM
  IC50: < 31.6 nM
Second compound 3.16 µM
  IC50: < 31.6 nM
Second compound 10 µM
  IC50: < 31.6 nM
[1]
  viability, T/C: 81%
[2]
  viability, T/C: 83.5%
[3]
  viability, T/C: 68.8%
[4]
  viability, T/C: 71.7%
[5]
  viability, T/C: 92%
[6]
  viability, T/C: 54.1%
[7]
  viability, T/C: 73.4%
[8]
  viability, T/C: 53.2%
[9]
  viability, T/C: 47.8%
[10]
  viability, T/C: 51%
[11]
  viability, T/C: 53.9%
[12]
  viability, T/C: 39.6%
[13]
  viability, T/C: 14.4%
[14]
  viability, T/C: 19.4%
[15]
  viability, T/C: 18.1%
[16]
  viability, T/C: 18.6%
[17]
  viability, T/C: 19.8%
[18]
  viability, T/C: 16.7%
[19]
  viability, T/C: 1.96%
[20]
  viability, T/C: 2.25%
[21]
  viability, T/C: 2.62%
[22]
  viability, T/C: 1.95%
[23]
  viability, T/C: 1.85%
[24]
  viability, T/C: 1.4%
[25]
  viability, T/C: 1.05%
[26]
  viability, T/C: 1.27%
[27]
  viability, T/C: 0.89%
[28]
  viability, T/C: 0.99%
[29]
  viability, T/C: 0.97%
[30]
  viability, T/C: 0.84%
[31]
  viability, T/C: 0.26%
[32]
  viability, T/C: 0.3%
[33]
  viability, T/C: 0.26%
[34]
  viability, T/C: 0.29%
[35]
  viability, T/C: 0.33%
[36]
  viability, T/C: 0.27%
